Measured values published in US20200378993A1, “MEDICAL USES OF APOLIPOPROTEIN A AND ACTIVATORS THEREOF” (FUNDACIÓN IMDEA ALIMENTACIÓN, priority 2017, published 2020).

What was measured:
Format in all cases: cell-based, human
DLD1_ABCA1 cells = experiment: Cell viability and proliferation assay (XCELLigence); conditions: 40 μg/ml apolipoprotein A1 (72 hours before, 20 μg/ml during acquisition); DLD1_ABCA1 cells
Description: (§1) FIG. 6. A) Proliferation curve in a viability assay carried out by means of XCELLigence technology. The results for the stable cell line overexpressing ABCA1 in the absence and presence of ApoA1 are shown. The cells were treated for 72 hours before the experiment with 40 μg/ml of ApoA1 and with a concentration of 20 μg/ml during acquisition. B) Migration and invasion assays. The method followed was the same as the one described in FIG. 1. (**p-value=0.003; ****p-value<0.0001). C) ABCA1 messenger RNA level (left panel) and ABCA1 protein level (right panel) in the presence and absence of treatment with ApoA1. Results are shown both for the control cells and for those cells overexpressing the transporter.
Cell viability and proliferation assays were carried out by means of XCELLigence technology (ACEA Biosciences, Inc.) following the manufacturer's indications. Migration and invasion assays were carried out in Corning® BioCoat™ Control plates (#354578) and Corning® BioCoat™ Matrigel plates (#354480), respectively, following the manufacturer's indications. […]
(§2) The inventors were able to confirm said results based on the treatment of DLD1 cells expressing ABCA1 with RVX-208 under the conditions already described in detail in Example 3. […] The levels of caveolin-1, a protein whose increased levels have been associated with increases in cell migration and invasion, were also analyzed in this experiment.

[1] = tested on: ABCA1 cholesterol transporter; experiment: ABCA1 messenger RNA and protein level after treatment
Description: as §1
FIG. 7. A) Proliferation curve in a viability assay carried out by means of XCELLigence technology. Growth of DLD1 cells treated with DMSO as the drug carrier and with Rvx-208 (30 μM). The significant differences existing in the slope of the graph, and therefore in the growth dynamics of the treated cells are shown in the right panel (****p-value<0.0001). B) Migration and invasion assays. The method followed was the same as the one described in FIG. 2 (*p-value=0.0407; ****p-value<0.0001). C) Expression levels of proteins E-cadherin and Vimentin in the presence and absence of Rvx-208. Analysis performed by means of quantitative PCR. The relative expression levels normalized with respect to the untreated control are shown. D) ABCA1, ApoA1, caveolin-1, and α-tubulin immunodetection by means of Western blot. α-tubulin acts as load control. The results of the cells treated with Rvx-208 (30 μM) or with the DMSO carrier are shown. E) Cholesterol flux in cells treated with Rvx-208.
Cell viability and proliferation assays were carried out by means of XCELLigence technology (ACEA Biosciences, Inc.) following the manufacturer's indications. Migration and invasion assays were carried out in Corning® BioCoat™ Control plates (#354578) and Corning® BioCoat™ Matrigel plates (#354480), respectively, following the manufacturer's indications. For the rescue assays, the cells were treated for 72 hours with 30 μM apabetalone (RVX-208; Biovision). Antibodies: ABCA1 (Ab18180, Abcam. 1:500); caveolin-1 (Ab2910, Abcam. 1:1000); α-tubulin (T9026, Sigma 1:1000). The DLD1 cells correspond to a human colorectal cancer-derived adherent epithelial cell line (ATCC® CCL-221™). […]
as §2

DLD1 cells [2] = experiment: Invasion assay (Corning BioCoat Matrigel plates); conditions: ApoA1 40 μg/ml 72 hours before, 20 μg/ml during assay; DLD1 cells
Description: (§3) Cell viability and proliferation assays were carried out by means of XCELLigence technology (ACEA Biosciences, Inc.) following the manufacturer's indications. Migration and invasion assays were carried out in Corning® BioCoat™ Control plates (#354578) and Corning® BioCoat™ Matrigel plates (#354480), respectively, following the manufacturer's indications. For the rescue assays, the cells were treated for 72 hours with 30 μM apabetalone (RVX-208; Biovision). Antibodies: ABCA1 (Ab18180, Abcam. 1:500); caveolin-1 (Ab2910, Abcam. 1:1000); α-tubulin (T9026, Sigma 1:1000). The DLD1 cells correspond to a human colorectal cancer-derived adherent epithelial cell line (ATCC® CCL-221™). The stable cell lines capable of overexpressing ABCA1 were obtained by means of transduction with genetically modified lentivirus.
(§4) Following the same treatment regimen, the inventors carried out migration and invasion assays.
(§5) The same assays were repeated by replacing ApoA1 with a treatment with RVX-208. In this case, DLD1 cells were pre-treated for 72 hours before the start of the experiment with RVX-208 at a concentration of 30 μm and were subjected to a treatment with 15 μM of RVX-208 during the development of the experiments.
(§6) For the purpose of confirming that the effects of RVX-208 in cell phenotype recovery were due to the increase in ApoA-1 expression, the inventors inhibited the expression of said protein by means of transfection of a complementary small RNA, ShApoA1 (FIG. 9). Twenty-four hours after transfection with ShApoA1 expression vector, the inventors started treatment with 30 μM of RVX-208. Cell viability and proliferation in DLD1 cells (D_NoORF) and D1D1 cell lines expressing increased ApoA1 levels (D_ApoA1 ) were analyzed with the xCELLigence system.

DLD1 cells [3] = experiment: Migration assay (Corning BioCoat Control plates); conditions: ApoA1 40 μg/ml 72 hours before, 20 μg/ml during assay
Description: as §3, §4, §5

DLD1 cells [4] = experiment: Cell viability and proliferation assay (XCELLigence); conditions: ApoA1 40 μg/ml first dose of 72 hours, 20 μg/ml during result acquisition; DLD1 cells
Description: as §3, §4, §5, §6

[5] = treatment with ApoA1, control cells and cells overexpressing ABCA1

## ApoA1: apolipoprotein A1 protein administered to the cells
DLD1_ABCA1 cells
  proliferative capacity: dropped to levels that are comparable to the control situation
[1]; direct treatment with ApoA1, as restated in Example 5 (FIG. 6C)
  ABCA1 levels: induces an increase in ABCA1 levels
[1]; [5]
  ABCA1 expression level, messenger RNA level: significantly decreases the expression levels
  ABCA1 expression level, protein level: significantly decreases the expression levels
DLD1 cells [2]
  capacity to invade the extracellular matrix: reduced capacities
DLD1 cells [3]
  capacity to migrate to the serum-rich region: reduced capacities to migrate to the serum-rich region
DLD1 cells [4]
  cell proliferation: significant decrease in cell proliferation
